Measured values as given in ChEMBL document CHEMBL1145858, “Synthesis and structure-activity studies of novel orally active non-terpenoic 2,3-oxidosqualene cyclase inhibitors” (J Med Chem, 2003).

Columns and labels:
[1] = target: T1, Lanosterol synthase (Homo sapiens, UniProt P48449)
T1 sequence (P48449 whole entry): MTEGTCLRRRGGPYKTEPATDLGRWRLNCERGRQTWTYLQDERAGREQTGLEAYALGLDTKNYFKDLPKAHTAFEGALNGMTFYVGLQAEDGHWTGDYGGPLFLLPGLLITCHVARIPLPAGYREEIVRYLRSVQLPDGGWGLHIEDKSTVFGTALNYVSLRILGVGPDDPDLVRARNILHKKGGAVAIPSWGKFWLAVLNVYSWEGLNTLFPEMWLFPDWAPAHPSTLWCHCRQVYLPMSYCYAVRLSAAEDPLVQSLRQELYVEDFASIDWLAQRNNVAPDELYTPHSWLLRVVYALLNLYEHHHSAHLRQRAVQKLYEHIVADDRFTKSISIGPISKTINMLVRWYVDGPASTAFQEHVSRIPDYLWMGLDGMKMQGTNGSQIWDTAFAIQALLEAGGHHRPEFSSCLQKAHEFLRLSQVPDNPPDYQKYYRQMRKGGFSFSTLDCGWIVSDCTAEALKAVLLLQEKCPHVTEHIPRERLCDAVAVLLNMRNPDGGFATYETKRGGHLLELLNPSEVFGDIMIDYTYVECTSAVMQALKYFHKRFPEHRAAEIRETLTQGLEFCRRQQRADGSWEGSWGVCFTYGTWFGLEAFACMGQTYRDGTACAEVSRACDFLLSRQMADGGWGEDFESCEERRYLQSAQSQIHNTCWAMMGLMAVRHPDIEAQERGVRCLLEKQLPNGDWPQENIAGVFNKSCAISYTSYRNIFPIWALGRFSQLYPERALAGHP

[2] = test system: Cricetinae gen. sp.; assay: […] effect on LDL cholesterol (LDL-C) level in fat-fed hamsters treated for 10 days at 200 umol/kg/day; type: functional, Cricetulus griseus
[3] = test system: Cricetinae gen. sp.; assay: […] effect on total plasma cholesterol(TC) level in fat-fed hamsters treated for 10 days at 200 umol/kg/day; type: functional, Cricetulus griseus
[4] = physchem
[5] = target: T2, Lanosterol synthase (Homo sapiens) (UniProt P48449); conditions: at 100 nM
T2 sequence (whole entry): T1 sequence (P48449 whole entry)

[6] = target: T1, Lanosterol synthase; assay: In vitro inhibition of human 2,3-oxidosqualene cyclase.

IC50 [1] [nM]	SMILES	LDL-C [2] [%]	other results
4.6	C=CCN(C)CCCCCCOc1ccc(C(=O)c2ccc(Br)cc2)c(OC)c1		
	C=CCN(C)CCCCCCOc1ccc(C(=O)c2ccc(Br)cc2)c(F)c1.O=C(O)/C=C/C(=O)O	-27	TC [3]: -41%
7.9	C=CCN(C)CCCCCCOc1ccc2c(c1)CCN=C2c1ccc(Br)cc1		
4.1	C=CCN(C)CCCCCCOc1ccc(C(=O)c2ccc(Br)cc2)c(NC)c1		
7.8	C=CCN(C)CCCCCCOc1ccc2c(c1)S(=O)(=O)N=C2c1ccc(Br)cc1		
	C=CCN(C)CCCCCCOc1ccc(C(=O)c2ccc(Br)cc2)cc1.O=C(O)/C=C/C(=O)O	-25	pKa [4]: 8.18; TC [3]: -27%
	C=CCN(C)CCCCCCOc1ccc2c(-c3ccc(Br)cc3)nsc2c1.O=C(O)/C=C/C(=O)O	-33	TC [3]: -36%
35.3	CN(CCCCCCOc1ccc(C(=O)c2ccc(Br)cc2)cc1)C1CC1		pKa [4]: 7.48
	C=CCN(C)CCCCCCOc1ccc2c(-c3ccc(Br)cc3)coc2c1		inhibition [5]: 14%
	C=CCN(C)CCCCCCOc1ccc(C(=O)c2ccc([N+](=O)[O-])cc2)cc1		IC50 [6]: 1.9 nM
	C=CCN(C)CCCCCCOc1ccc(-c2nsc3cc(Br)ccc23)cc1		inhibition [5]: 5%
8.7	C=CCN(C)CCCCCCOc1ccc(C(=O)c2ccc(Br)cc2)cn1		
	C=CCN(C)CCCCCCOc1ccc2c(-c3ccc(Br)cc3)nccc2c1.Cl	-14	
5.6	C=CCN(C)CCCCCCOc1ccc2c(-c3ccc(Br)cc3)csc2c1		
6.2	C=CCN(C)CCCCCCOc1ccc(C(=O)c2ccc(Br)cc2)c(SC)c1		
	C=CCN(C)CCCCCCOc1ccc2c(c1)CON=C2c1ccc(Br)cc1.O=C(O)/C=C/C(=O)O	-3	
15.7	CN(CCCO)CCCCCCOc1ccc(C(=O)c2ccc(Br)cc2)cc1		pKa [4]: 9.05
	CN(CCCCCCOc1ccc(C(=O)c2ccc(Br)cc2)cc1)CC1CC1		pKa [4]: 9.37
6.3	C=CCN(C)CCCCCCOc1ccc(C(=O)c2ccc(Br)cc2)c(O)c1		
11.4	C=CCN(C)CCCCCCOc1ccc2c(c1)OCC=C2c1ccc(Br)cc1		
	C=CCN(C)CCCCCCOc1ccc2c(-c3ccc(Br)cc3)noc2c1		inhibition [5]: 21%

SMILES	IC50 [1] [nM]	LDL-C [2] [%]	other results
C=CCN(C)CCCCCCOc1ccc(C(=O)c2ccc(F)cc2)cc1.Cl	6.7	-24	TC [3]: -40%
Br.C=CCN(C)CCCCCCOc1ccc(C(=O)c2ccccc2)cc1	22.5	-12	
